# Test results from patent US20100233532A1, “Composition for battery” (TOYO INK MFG. CO., LTD., priority 2007, published 2010).
# Assay: Solubility of dispersants in purified water
# Format: physicochemical
# Procedure: Evaluations of solubility were carried out by evaluating dispersants having solubility in purified water of 0.02% or more as “O” (soluble) and those having solubility of less than 0.02% as “x” (insoluble).
row,Structure (SMILES),Solubility in water
1,Cc1ccc(Nc2nc(Nc3ccccc3)nc(Nc3ccc4[nH]c(=O)[nH]c4c3)n2)cc1S(=O)(=O)O [Dispersant A],Salt forming substance: None Solubility in water: ∘
2,O=P(O)(O)c1ccc(Nc2nc(Nc3ccc4ccccc4c3)nc(Nc3ccc4ccccc4c3)n2)cc1 [Dispersant F],Salt forming substance: None Solubility in water: ∘
3,CC1(C)CC(Nc2nc(Nc3ccc(P(=O)(O)O)cc3)nc(Nc3ccc4[nH]c(=O)[nH]c4c3)n2)CC(C)(CNc2nc(Nc3ccc(P(=O)(O)O)cc3)nc(Nc3ccc4[nH]c(=O)[nH]c4c3)n2)C1 (stereo not shown) [Dispersant G],Solubility in water: x (solubility of less than 0.02% as “x” (insoluble))
4,CCn1c2ccccc2c2cc(Nc3nc(O)nc(Nc4ccc(O)c(C(=O)O)c4)n3)ccc21 [Dispersant H],Salt forming substance: None Solubility in water: ∘
5,O=C1Cc2ccc(Nc3nc(Nc4ccc(C(=O)O)cc4)nc(Nc4ccc5[nH]c(=O)[nH]c5c4)n3)cc2C1 [Dispersant I],Solubility in water: x (solubility of less than 0.02% as “x” (insoluble))
6,Cc1ccc2cccc(Nc3nc(Nc4ccc(C(=O)O)cc4)nc(Nc4ccc(C(=O)O)cc4)n3)c2n1 [Dispersant J],Solubility in water: x (solubility of less than 0.02% as “x” (insoluble))
7,O=C(O)c1cc2ccccc2c(N=Nc2ccc([N+](=O)[O-])cc2)c1O [Dispersant O],Salt forming substance: None Solubility in water: ∘
